Measurements: patent US20050034189A1, “Chitin oligosaccharide elicitor- and gibberellin-responsive genes in plants, and uses thereof” (National Institute of Agrobiological Sciences, priority 2001, published 2005)
Like-named read-outs stand apart in the source and are kept apart here.

Columns and labels:
[1] = system: CIGR1 gene and CIGR2 gene; test: Elicitor responsiveness of CIGR1 and CIGR2 genes in cultured rice cells, Northern blot hybridization; assay type: cell-based, rice (Oryza sativa cv. Nipponbare)
Protocol: (§1) (1) Cultured rice cells: The cultured cells of rice were induced from germinating rice seeds (Oryza sativa cv. Nipponbare) on a N6 agar plate containing 1 ppm 2,4-D (auxin; 2,4-dichlorophenoxyacetic acid). The cells were successively cultured in liquid N6 medium as follows. Once a week, cells of about 1 ml in volume were transferred to 150 ml N6 medium. Every two weeks, sizes of the clusters of cells were reduced by passing through a 20-mesh metallic mesh. Unfiltered cells that were cultured while shaking for four to six days after transferring to a 30-ml medium, were used for Northern blotting's RNA extraction.
(§2) (2) RNA extraction: The extraction of total RNA from cultured cells and green leaves of rice was carried out following the phenol-SDS method. A Polytron homogenizer was used to homogenize tissue in the presence of phenol (about 90% saturated with water) of about tenfold or more volume to the tissue volume, and the same volume of extraction buffer solution (50 mM Tris-HCl pH 9.0, 1% SDS, 50 mM NaCl). The aqueous phase obtained by centrifugation was repeatedly extracted with phenol. The total nucleic acid was precipitated by adding 0.6 volume of isopropanol to the extract and then stirring the mixture. After dissolving the precipitate in water, 0.25 volume of 10 M LiCl was added, and the mixture was cooled on ice. High molecular weight RNA was collected by centrifugation, washed with 70% ethanol, and then dissolved in a small volume of water to be used as an RNA sample.
(3) A method for gibberellin treatment of cultured cells and green leaves: The cultured cells were pre-washed with 2,4-D-free N6 medium several times, and then suspended in the same medium and shaken for two hours at 25° C. […]
Both CIGR1 gene and CIGR2 gene were identified as elicitor responsive genes using DNA microarray analysis. The elicitor responsiveness of these two genes was analyzed using Northern blot hybridization method. […]

[2] = system: rice; conditions: reported; cited from earlier work
[3] = system: CIGR1 gene and CIGR2 gene; test: Effect of inhibitors on induction of CIGR1 and CIGR2 genes by chitin heptamer in cultured rice cells; assay type: cell-based; conditions: inhibitor added ten minutes before; okadaic acid 1 μM, lavendustin A 30 μM, K-252a 20 μM
Protocol: (§3) FIG. 11 depicts photographs representing the effects of protein kinase inhibitors on elicitor response and gibberellin response. The following compounds were added ten minutes before the treatment with chitin heptamer (GN7) or gibberellin (GA3). (A): the positive control of the elicitor response; (B): okadaic acid (1 μM); (C), lavendustin A (30 μM); (D), K-252a (20 μM).
(§4) In addition, the effects of various inhibitors on the inductions by gibberellin and elicitors of CIGR1 gene and CIGR2 gene in the cultured rice cells were examined. Referring to the results of Kuo et al., cells pretreated with okadaic acid were tested. […] From these observations, protein phosphatase was presumed to be involved in signal transduction from gibberellin to CIGR1 gene and CIGR2 gene in cultured rice cells. Following these experiments, the effects of protein kinase inhibitors were studied.

[4] = system: α-amylase; conditions: aleurone layer of wheat, cited from earlier work
[5] = system: CIGR1 gene and CIGR2 gene; test: Effect of inhibitors on induction of CIGR1 and CIGR2 genes by GA3 in cultured rice cells; assay type: cell-based; conditions: inhibitor added ten minutes before; okadaic acid 1 μM, lavendustin A 30 μM, K-252a 20 μM
Protocol: as §3, §4

[6] = system: nine plant bioassays; conditions: cited from earlier work
[7] = system: CIGR1 gene and CIGR2 gene; test: Gibberellin responsiveness of CIGR1 and CIGR2 genes in suspension-cultured rice cells, Northern blot hybridization; assay type: cell-based, rice (Oryza sativa cv. Nipponbare); conditions: for induction of CIGR1 and CIGR2 gene expression by gibberellin species: ten-minute treatment of cultured rice cells
Protocol: as §1, §2
(3) A method for gibberellin treatment of cultured cells and green leaves: The cultured cells were pre-washed with 2,4-D-free N6 medium several times, and then suspended in the same medium and shaken for two hours at 25° C. Gibberellin (GA3 dissolved in ethanol) was added to make the respective final concentrations and the cells were cultured while shaking for a predetermined time and used for RNA extraction. Nipponbare plants, grown three weeks after seeding, were sprayed with gibberellin. The third and fourth leaves were collected at certain intervals and total RNA was extracted. Elicitor treatment was carried out by directly adding aqueous elicitor solutions to cultured cells of rice.
(4) Hybridization: RNA for the Northern hybridization was denatured by the glyoxal method. 2.7 μl of glyoxal (final concentration, 1 M), 1.6 μl of sodium phosphate (pH 7.0, final concentration, 10 mM), and 8 μl of dimethylsulfoxide (final concentration, 50%) were added to 10 μg of total RNA (3.7 μl). The mixture was kept at 50° C. for one hour and then subjected to electrophoresis in 1.4% agarose (10 mM sodium phosphate, pH 7.0). After electrophoresis, RNA was blotted onto a nylon membrane (Biodyne A) and RNA was fixed onto the membrane by treatment at 80° C. for two hours. Hybridization was carried out in a mixture of 50% formamide, 0.1% SDS, 0.1 mg/ml salmon sperm DNA, 5×SSPE (0.9 M NaCl, 50 mM sodium phosphate, 5 mM EDTA, pH 7.4), and 5× Denhardt's solution (0.1% bovine serum albumin, 0.1% Ficoll, 0.1% polyvinylpyrrolidone) at 42° C. for one day. The membrane was then washed with 0.1×SSC (15 mM NaCl, 1.5 mM sodium citrate) three times for five minutes each at room temperature and twice for 30 minutes each at 65° C. and then exposed on X-ray film.
Therefore, the present inventors examined the gibberellin responsiveness of CIGR1 and CIGR2 genes. Suspension-cultured cells were treated with GA3, which is one of the active-type gibberellins, and changes in the expression of these two genes were analyzed over time. […] To maintain cell division activity, the medium used for culturing plant cells contained 2,4-D, which is one of auxins that are not easily metabolized by plants. It was thought that 2,4-D might suppress the action of gibberellin. Therefore, the cells were pre-washed with 2,4-D-free medium, and after two hours of pre-culture in the same medium, the cells were treated with GA3. […]

[8] = system: PR1, PR10 and OsDRF1 genes; test: Induction of PR1, PR10 and OsDRF1 genes after DEX treatment of transformed rice, oligoarray and Northern; assay type: in vivo, rice (Nipponbare); conditions: transformed line #7; DEX 30 μM spray
Protocol: FIG. 12 depicts photographs representing the occurrence of expression induction of PR1, PR10 and OsDRF1 genes on induction of CIGR2 gene expression by DEX using a DEX-inducing type promoter. Transformed rice plants #7 and #9 were spray-treated with DEX or ethanol (EtOH; 0.1% v/v). The amounts of mRNA for each gene were measured using northern blot hybridization after zero, 24, 48 and 72 hours.
Using Agrobacterium methods, the plasmid was introduced into rice (Nipponbare). The derived transformed rice was inbred, and second generation seeds were obtained. Each independent line was spray-treated with dexamethasone (DEX; 30 μM, ethanol solution). Over a time course, total RNAs were extracted by phenol methods from the above ground part of the plant. Northern hybridization was carried out using the cDNA of ^32P-labeled CIGR2 as a probe. […] This line was analyzed using a 60mer oligoarray (Agilent) constructed from a total-length rice cDNA library. As a result, induction of three genes (PR1(AK107926), PR10, and OsDRF1 (Defense Response Gene Family 1; AK100816)) was discovered 48-72 hours after dexamethasone treatment. PR1 and PR10 are known to be involved in disease resistance. […]

[9] = system: elicitor-responsive genes; conditions: pretreatment with K-252a; suspension-cultured rice cells; cited from earlier work
[10] = system: CHRC; conditions: cited from earlier work
[11] = system: CIGR1 gene and CIGR2 gene; test: Expression of CIGR1 and CIGR2 genes in green leaves of rice after GA3 spraying; assay type: in vivo, rice (Nipponbare); conditions: GA3 50 μM sprayed; third and fourth leaves, three weeks after seeding
Protocol: FIG. 10 depicts photographs representing the expression of CIGR1 gene and CIGR2 gene in green leaves of rice after GA3 treatment. After spraying rice plants with GA3, the third and fourth leaves were sampled at certain intervals. Total RNA extracted from the third and fourth leaves was analyzed by the Northern blot hybridization method.
as §2, with “sample. […]” for “sample.”
Cultured plant cells are thought to be in an undifferentiated state in the presence of auxins. […] Thus, the responses of these two genes to gibberellin were analyzed in green leaves of rice. […]

[12] = ten-minute GA3 treatment, 2,4-D-free medium

SMILES	inhibition of induction of both genes by chitin heptamer [3]	inhibition of induction of both genes by GA3 [5]	physiological activity type of gibberellin [6]	induction of CIGR1 and CIGR2 gene expression by gibberellin species [7]	other results
CC(=O)N[C@H]1[C@H](O[C@@H]([C@H](O)[C@H](C=O)NC(C)=O)[C@H](O)CO)O[C@H](CO)[C@@H](O[C@@H]2O[C@H](CO)[C@@H](O[C@@H]3O[C@H](CO)[C@@H](O[C@@H]4O[C@H](CO)[C@@H](O[C@@H]5O[C@H](CO)[C@@H](O[C@@H]6O[C@H](CO)[C@@H](O)[C@H](O)[C@H]6NC(C)=O)[C@H](O)[C@H]5NC(C)=O)[C@H](O)[C@H]4NC(C)=O)[C@H](O)[C@H]3NC(C)=O)[C@H](O)[C@H]2NC(C)=O)[C@@H]1O [chitin heptamer, N-acetylchitoheptaose]					response (induction of expression) of both genes to chitin oligomers (monomer to heptamer) and chitosan oligomers (tetramer, heptamer) [1]: strongest response; time for which expression continued to increase after chitin heptamer treatment ([1]; both genes): up to 90 minutes; mRNA amount of CIGR1 and CIGR2 genes after treatment with chitin heptamer ([1]; five minutes after treatment, both genes): Significant increases of mRNA amount; elicitor activity in rice depending on oligomer size [2]: strongest effects
C=C1[C@@H](O)[C@@H]2O[C@]3(CC[C@H](/C=C/[C@@H](C)[C@@H]4CC(C)=C[C@@]5(O[C@H](C[C@@](C)(O)C(=O)O)CC[C@H]5O)O4)O3)CC[C@H]2O[C@@H]1[C@@H](O)C[C@H](C)[C@H]1O[C@@]2(CCCCO2)CC[C@H]1C [okadaic acid]	hardly inhibited	inhibited almost completely			inhibition of gibberellin induction of α-amylase [4]: specifically inhibited
C=C1C[C@]23C[C@@]1(O)CC[C@H]2[C@@]12CC[C@H](O)[C@@](C)(C(=O)O1)[C@H]2[C@@H]3C(=O)O [GA1]			active type	induced the expression of both genes	
C=C1C[C@]23C[C@@]1(O)CC[C@H]2[C@]1(C(=O)O)CCC[C@@](C)(C(=O)O)[C@H]1[C@@H]3C(=O)O [GA17]			inactive type	only active type gibberellins induced the expression	
O=C(O)c1cc(N(Cc2ccccc2O)Cc2cc(O)ccc2O)ccc1O [Lavendustin A]	hardly inhibited	almost completely			
C=C1C[C@]23C[C@H]1CC[C@H]2[C@]1(C(=O)O)CC[C@H](O)[C@@](C)(C(=O)O)[C@H]1[C@@H]3C(=O)O [GA13]			inactive type	only active type gibberellins induced the expression	
C[C@@H]1C[C@H]2[C@@H]3CCC4=CC(=O)C=C[C@]4(C)[C@@]3(F)[C@@H](O)C[C@]2(C)[C@@]1(O)C(=O)CO [dexamethasone]					time after dexamethasone treatment at which induction of PR1, PR10 and OsDRF1 was discovered [8]: 48 to 72 h
COC(=O)[C@@]1(O)C[C@H]2O[C@]1(C)n1c3ccccc3c3c4c(c5c6ccccc6n2c5c31)C(=O)NC4 [K-252-A]	almost completely	almost completely			inhibition of induction of expression of elicitor-responsive genes [9]: strongly inhibited; inhibition of gibberellin induction of α-amylase ([4]; listed as K252a): hardly inhibited
C=C1C[C@]23C[C@H]1CC[C@H]2[C@@]12CC[C@H](O)[C@@](C)(C(=O)O1)[C@H]2[C@@H]3C(=O)O [GA4]			active type	induced the expression of both genes	
C=C1C[C@]23C[C@@]1(O)CC[C@H]2[C@@]12C=C[C@H](O)[C@@](C)(C(=O)O1)[C@H]2[C@@H]3C(=O)O [GA3]			active type	induced the expression of both genes	expression after GA3 treatment ([7]; cells pre-washed and pre-cultured two hours in 2,4-D-free medium): Transient expression with a maximum at ten minutes after treatment; change in the amount of expression after GA3 treatment ([7]; medium containing 2,4-D, up to three hours after treatment, both genes): no significant change; GA3 concentration at which induction of expression of both genes began to appear [7, 12]: 10^−6 M; GA3 concentration at which induction reached near saturation [7, 12]: ~10^−4 M; GA3 concentration required for induction of CHRC by gibberellin ([10]; chromoplasts of cucumber petals): at least 10^−7 M; GA3 concentration up to which CHRC expression level increased approximately linearly ([10]; cucumber petals): up to 10^−4 M; expression of both genes in green leaves after GA3 spraying [11]: very rapid transient expression with a maximum at 30 minutes after spraying
